Among the test systems are A549; HL-60; HOP-62; HT-29; K562; KM12; Malme-3M; NCI-H23; OVCAR-3; SF-268; SF-539; SK-OV-3; SW-620; TK-10; COLO 205; HCC 2998; MDA-MB-435; NCI/ADR-RES; SN12C; RXF 393.
Common to all, as to test: NCI anticancer screen, dose series, 48 h

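1) Cells in 96-well plates. 2) Compound, 48 h, 5 concentrations. 3) Linear interpolation between surrounding doses. 4) Unreached endpoint = highest concentration. Abbreviation: GI50, concentration required for 50% inhibition of growth.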 Active and inactive are the calls of the source. No stated cut-off is given here; in the data, active = GI50 up to about 1.1 µM and inactive = higher. Where only a bound is given, the exact number is not on record here.

Turning to `COc1ccc(C[C@H](N)C(=O)N2C[C@@H](CO)C[C@@H](n3cnc4c(N(C)C)ncnc43)C2)cc1`, the GI50 in the assay with A549, in the assay with HL-60, in the assay on HOP-62, with HT-29, in the assay on K562 and with KM12 was > 100 µM (inactive) throughout. Moreover, the GI50 in the assay with Malme-3M, in the assay with NCI-H23, with OVCAR-3, with SF-268, with SF-539 and in the assay on SK-OV-3 was > 100 µM (inactive) throughout. Also, the GI50 in the assay on SW-620 and with TK-10 was > 100 µM (inactive) each time.
As for `COc1ccc2c(c1)c1c(n2CCN2CCCCC2)-c2cccc(OC)c2CC1`, the GI50 is 27.9 µM (inactive) in the assay on A549; 16.7 µM (inactive) in the assay on COLO 205; 15.5 µM (inactive) with HCC 2998; 16.7 µM (inactive) with HOP-62; 4.58 µM (inactive) in the assay on HT-29; 9.04 µM (inactive) in the assay on K562. The GI50 was 13 µM (inactive) in the assay with KM12; 14.7 µM (inactive) in the assay with MDA-MB-435; 14.8 µM (inactive) in the assay on NCI-H23; 18.7 µM (inactive) with NCI/ADR-RES; 17.2 µM (inactive) in the assay with OVCAR-3; 19.7 µM (inactive) with SF-268. The GI50 was 33.4 µM (inactive) with SK-OV-3, 14.9 µM (inactive) in the assay on SN12C, 16.7 µM (inactive) in the assay with SW-620 and 15 µM (inactive) in the assay on TK-10.
With `O=C1OC2CC=CC1C2` (stereo not drawn), the GI50 in the assay with A549, in the assay with COLO 205, in the assay on HCC 2998, with HL-60, with HOP-62 and with HT-29 was > 100 µM (inactive) in each case. In addition, the GI50 in the assay with K562, in the assay on KM12, in the assay with Malme-3M, in the assay with NCI-H23, in the assay with NCI/ADR-RES and in the assay on OVCAR-3 was > 100 µM (inactive) each time. The GI50 in the assay with RXF 393, in the assay with SF-268, with SF-539, with SK-OV-3, in the assay with SN12C and with SW-620 was > 100 µM (inactive) throughout.
Turning to `Nc1ncnc2c1nnn2C1OC(CO)C(O)C1O` (stereo not drawn), the GI50 in the assay with A549 was 3.65 µM (inactive); in the assay on COLO 205, 3.05 µM (inactive); in the assay on HCC 2998, 1.83 µM (inactive); with HL-60, 0.405 µM (active); with HOP-62, 6.05 µM (inactive); with HT-29 it was 6.78 µM (inactive). Moreover, the GI50 is 1.61 µM (inactive) with K562; 4.21 µM (inactive) with KM12; 3.58 µM (inactive) in the assay on Malme-3M; 7.82 µM (inactive) in the assay on NCI-H23; 8.97 µM (inactive) in the assay on NCI/ADR-RES; 5.5 µM (inactive) in the assay on OVCAR-3. In addition, the GI50 with SF-268 is 6.3 µM (inactive); with SF-539 it was 9.14 µM (inactive); in the assay on SK-OV-3, 0.822 µM (active); in the assay on SN12C it was 1.17 µM (inactive); in the assay on SW-620, 2.19 µM (inactive).
For the compound `CCNC(=O)C(C)C1CCC2(C)C=CC(=O)C(C)=C2C1O` (stereo not drawn), the GI50 is 99.5 µM (inactive) in the assay with A549; > 100 µM (inactive) with COLO 205; > 100 µM (inactive) in the assay with HCC 2998; > 100 µM (inactive) with HL-60; > 100 µM (inactive) in the assay with HOP-62; > 100 µM (inactive) in the assay on HT-29. Moreover, the GI50 with K562, in the assay with KM12, with NCI-H23, in the assay with NCI/ADR-RES, with OVCAR-3 and in the assay on RXF 393 was > 100 µM (inactive) each time. Also, the GI50 in the assay on SF-268, with SF-539, in the assay with SK-OV-3, with SN12C and with SW-620 was > 100 µM (inactive) in each case.
`CC1=CC(O)C(O)C2(C)C1CC1OC(=O)C(O)C3C(C)C(O)C4(O)OCC13C42` (stereo not drawn): the GI50 in the assay on A549 is 27.9 µM (inactive); in the assay on COLO 205, 20.1 µM (inactive); with HCC 2998 it was 16.8 µM (inactive); with HL-60, 33 µM (inactive); in the assay with HOP-62 it was 65.3 µM (inactive); in the assay on HT-29, 38.1 µM (inactive). The GI50 was 37.2 µM (inactive) with K562; 13.3 µM (inactive) in the assay on KM12; 97.7 µM (inactive) in the assay with Malme-3M; 49.5 µM (inactive) with NCI-H23; 242 µM (inactive) in the assay with NCI/ADR-RES; 10.2 µM (inactive) in the assay with OVCAR-3. Besides, the GI50 is 8.81 µM (inactive) in the assay with RXF 393; 133 µM (inactive) in the assay with SF-268; 39.2 µM (inactive) in the assay with SF-539; 49.9 µM (inactive) in the assay on SK-OV-3; 236 µM (inactive) in the assay with SN12C; 24.7 µM (inactive) in the assay on SW-620.
With `CC(C)(C)[Si](C)(C)OCCCC#CCO`, the GI50 in the assay with A549 was > 100 µM (inactive); in the assay with COLO 205, > 100 µM (inactive); with HCC 2998 it was > 100 µM (inactive); in the assay on HL-60, 25.8 µM (inactive); with HT-29, > 100 µM (inactive); in the assay with K562, 98.2 µM (inactive). In addition, the GI50 in the assay with KM12, in the assay on Malme-3M, in the assay on NCI-H23, with RXF 393, with SF-268 and in the assay on SF-539 was > 100 µM (inactive) in each case. In addition, the GI50 in the assay on SK-OV-3, in the assay on SN12C, in the assay with SW-620 and with TK-10 was > 100 µM (inactive) throughout.
For `Clc1ccc(C2SCc3nc4ccccc4n32)cc1` (stereo not drawn), the GI50 in the assay with COLO 205 is 16.5 µM (inactive); with HL-60 it was 5.24 µM (inactive); in the assay with HT-29 it was 19.5 µM (inactive); in the assay on K562, 15.2 µM (inactive); in the assay on Malme-3M it was 11.1 µM (inactive); in the assay with NCI-H23 it was 10.9 µM (inactive). In addition, the GI50 with OVCAR-3 is 24.8 µM (inactive); in the assay with SF-268 it was 19 µM (inactive); with SF-539, 22.6 µM (inactive); with SK-OV-3 it was 25.4 µM (inactive); in the assay with SN12C, 17.1 µM (inactive); in the assay with SW-620 it was 33.3 µM (inactive). Moreover, the GI50 in the assay on TK-10 was 30.1 µM (inactive).
Turning to `COc1ccc(NC(=S)NNC(=O)c2nsc3ccccc23)cc1`, the GI50 with A549 is 37.2 µM (inactive); with COLO 205, 43.9 µM (inactive); in the assay on HCC 2998, 68.2 µM (inactive); with HL-60 it was 19.9 µM (inactive); with HOP-62, 43.5 µM (inactive); in the assay with HT-29 it was 45.9 µM (inactive). The GI50 in the assay on K562 was 30.9 µM (inactive); with KM12, 37.3 µM (inactive); in the assay with NCI-H23, 41.8 µM (inactive); with OVCAR-3 it was 22.2 µM (inactive); in the assay on RXF 393, 22 µM (inactive); with SF-268, 34.4 µM (inactive). Moreover, the GI50 was 28.3 µM (inactive) with SF-539, 31.8 µM (inactive) in the assay on SN12C, 48.4 µM (inactive) with SW-620 and 43.4 µM (inactive) with TK-10.
For the compound `C1CNCCNCCNCCN1`, the GI50 was > 100 µM (inactive) in the assay on A549; 37.5 µM (inactive) in the assay with COLO 205; 64.3 µM (inactive) with HCC 2998; 62.7 µM (inactive) with HL-60; > 100 µM (inactive) in the assay with HOP-62; 63.5 µM (inactive) with HT-29. Also, the GI50 in the assay on K562 is 70.5 µM (inactive); with KM12, > 100 µM (inactive); in the assay on Malme-3M it was > 100 µM (inactive); in the assay with NCI-H23, > 100 µM (inactive); with OVCAR-3, 72.6 µM (inactive); in the assay on RXF 393, > 100 µM (inactive). Besides, the GI50 in the assay on SF-539 was > 100 µM (inactive); in the assay on SK-OV-3, > 100 µM (inactive); in the assay on SN12C, > 100 µM (inactive); in the assay with SW-620, 52.2 µM (inactive); with TK-10, > 100 µM (inactive).
For the compound `CC(C)[C@](O)(C(=O)OCC1CC[N+]2([O-])CC[C@@H](O)C12)[C@H](C)O` (stereo partly drawn), the GI50 with A549 is > 375 µM (inactive); in the assay on COLO 205, > 375 µM (inactive); in the assay with HCC 2998, > 277 µM (inactive); with HL-60, > 375 µM (inactive); in the assay with HOP-62, > 375 µM (inactive); in the assay on HT-29, > 375 µM (inactive). The GI50 is > 375 µM (inactive) in the assay on K562; > 375 µM (inactive) in the assay with KM12; > 255 µM (inactive) with Malme-3M; > 375 µM (inactive) with NCI-H23; > 375 µM (inactive) in the assay with NCI/ADR-RES; > 375 µM (inactive) in the assay with OVCAR-3. Further, the GI50 in the assay with RXF 393, in the assay with SF-268, with SF-539, in the assay with SK-OV-3, in the assay on SN12C and in the assay on SW-620 was > 375 µM (inactive) each time.
Regarding `COc1cc2c(oc(=O)c3cc4cc([Si](C)(C)C)oc4c(OC)c32)c2cccc(O)c12`, the GI50 in the assay with A549, with COLO 205, in the assay on HCC 2998, in the assay with HL-60, in the assay with HOP-62 and with HT-29 was > 100 µM (inactive) throughout. The GI50 with K562, with KM12, in the assay with Malme-3M, in the assay with NCI-H23, in the assay on OVCAR-3 and in the assay on RXF 393 was > 100 µM (inactive) in each case. The GI50 in the assay with SF-268, in the assay on SF-539, in the assay with SK-OV-3, in the assay with SN12C, in the assay with SW-620 and in the assay with TK-10 was > 100 µM (inactive) in each case.

The values are drawn from ChEMBL document CHEMBL1201862, “PubChem BioAssay data set” (2004).
